≈ marks a conversion by molar mass, not a printed value.
Columns and labels:
[1] = target: T1, PXR (NR1I2) (Homo sapiens, UniProt O75469); assay: […] at PXR LBD (unknown origin) expressed in HEK293 cells […] at 1 uM after 16 hrs by luciferase reporter gene assay relative to rifampicin; type: ADME, cell-based; settings: HEK293 cells expressing PXR LBD, read-out: Efficacy
T1 sequence (O75469 whole entry): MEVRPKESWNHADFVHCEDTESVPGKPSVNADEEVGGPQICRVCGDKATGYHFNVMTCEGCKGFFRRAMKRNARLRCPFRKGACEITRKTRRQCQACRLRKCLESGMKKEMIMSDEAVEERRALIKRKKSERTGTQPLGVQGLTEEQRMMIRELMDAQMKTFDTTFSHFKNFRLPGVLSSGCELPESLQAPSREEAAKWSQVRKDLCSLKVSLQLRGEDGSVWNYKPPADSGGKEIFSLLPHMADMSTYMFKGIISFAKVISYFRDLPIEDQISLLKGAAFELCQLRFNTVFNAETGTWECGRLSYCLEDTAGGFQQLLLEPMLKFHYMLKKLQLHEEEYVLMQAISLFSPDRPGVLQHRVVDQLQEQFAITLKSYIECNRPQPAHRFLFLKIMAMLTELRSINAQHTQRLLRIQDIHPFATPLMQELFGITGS

[2] = target: T1, PXR (NR1I2); assay: […] at PXR LBD (unknown origin) expressed in HEK293 cells […] at 5 uM after 16 hrs by luciferase reporter gene assay relative to rifampicin; type: ADME, cell-based; settings: HEK293 cells expressing PXR LBD, read-out: Efficacy
[3] = target: T1, PXR (NR1I2); assay: […] at PXR LBD (unknown origin) expressed in HEK293 cells […] at 10 uM after 16 hrs by luciferase reporter gene assay relative to rifampicin; type: ADME, cell-based; settings: HEK293 cells expressing PXR LBD, read-out: Efficacy
[4] = Thermodynamic solubility of the compound in 30 mM phosphate buffer at 10 mM at pH 7 after 2 to 5 days by UV-HPLC analysis; type: physicochemical; settings: read-out: Therm_solubility
[5] = Half life in rat microsomes; type: ADME, Microsome
[6] = Half life in human microsomes; type: ADME, Microsome
[7] = target: T2, Cytochrome P450 1A2 (Homo sapiens, UniProt P05177); assay: Inhibition of CYP1A2 (unknown origin); type: ADME
T2 sequence (P05177 whole entry): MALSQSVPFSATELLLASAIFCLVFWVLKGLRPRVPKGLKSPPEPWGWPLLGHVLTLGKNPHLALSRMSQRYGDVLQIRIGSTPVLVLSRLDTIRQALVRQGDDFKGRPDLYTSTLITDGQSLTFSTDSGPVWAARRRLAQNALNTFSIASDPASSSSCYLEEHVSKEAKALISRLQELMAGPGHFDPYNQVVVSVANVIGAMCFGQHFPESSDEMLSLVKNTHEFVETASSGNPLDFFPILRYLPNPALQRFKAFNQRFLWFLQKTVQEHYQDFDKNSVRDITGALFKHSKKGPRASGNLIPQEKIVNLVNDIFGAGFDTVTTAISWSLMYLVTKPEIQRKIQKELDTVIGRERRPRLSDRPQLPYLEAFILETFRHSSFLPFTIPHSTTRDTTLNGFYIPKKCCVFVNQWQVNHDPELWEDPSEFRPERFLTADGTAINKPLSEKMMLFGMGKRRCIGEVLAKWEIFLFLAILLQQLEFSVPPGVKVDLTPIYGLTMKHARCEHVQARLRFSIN

[8] = target: Cytochrome P450 2C19 (Homo sapiens, UniProt P33261); assay: Inhibition of CYP2C19 (unknown origin); type: ADME
[9] = target: T3, Cytochrome P450 2C8 (Homo sapiens, UniProt P10632); assay: Inhibition of CYP2C8 (unknown origin); type: ADME
T3 sequence (P10632 whole entry): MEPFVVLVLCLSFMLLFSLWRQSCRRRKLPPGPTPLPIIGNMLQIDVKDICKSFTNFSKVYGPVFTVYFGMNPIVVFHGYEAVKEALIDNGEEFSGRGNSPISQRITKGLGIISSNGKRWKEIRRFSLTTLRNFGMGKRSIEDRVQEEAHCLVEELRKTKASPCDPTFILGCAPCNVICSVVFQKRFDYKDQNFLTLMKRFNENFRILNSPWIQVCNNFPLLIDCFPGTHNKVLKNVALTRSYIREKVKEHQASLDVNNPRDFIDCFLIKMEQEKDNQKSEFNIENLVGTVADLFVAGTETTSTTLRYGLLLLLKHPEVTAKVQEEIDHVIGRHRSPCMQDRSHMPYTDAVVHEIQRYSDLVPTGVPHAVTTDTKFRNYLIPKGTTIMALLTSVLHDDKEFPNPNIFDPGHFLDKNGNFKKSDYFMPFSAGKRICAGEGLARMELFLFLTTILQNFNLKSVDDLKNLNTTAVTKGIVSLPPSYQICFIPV

[10] = target: Cytochrome P450 2C9 (Homo sapiens, UniProt P11712); assay: Inhibition of CYP2C9 (unknown origin); type: ADME
[11] = target: Cytochrome P450 2D6 (Homo sapiens, UniProt P10635); assay: Inhibition of CYP2D6 (unknown origin); type: ADME
[12] = target: Cytochrome P450 3A4 (Homo sapiens, UniProt P08684); assay: Inhibition of CYP3A4 (unknown origin); type: ADME
Sequence of Cytochrome P450 3A4 (P08684 whole entry): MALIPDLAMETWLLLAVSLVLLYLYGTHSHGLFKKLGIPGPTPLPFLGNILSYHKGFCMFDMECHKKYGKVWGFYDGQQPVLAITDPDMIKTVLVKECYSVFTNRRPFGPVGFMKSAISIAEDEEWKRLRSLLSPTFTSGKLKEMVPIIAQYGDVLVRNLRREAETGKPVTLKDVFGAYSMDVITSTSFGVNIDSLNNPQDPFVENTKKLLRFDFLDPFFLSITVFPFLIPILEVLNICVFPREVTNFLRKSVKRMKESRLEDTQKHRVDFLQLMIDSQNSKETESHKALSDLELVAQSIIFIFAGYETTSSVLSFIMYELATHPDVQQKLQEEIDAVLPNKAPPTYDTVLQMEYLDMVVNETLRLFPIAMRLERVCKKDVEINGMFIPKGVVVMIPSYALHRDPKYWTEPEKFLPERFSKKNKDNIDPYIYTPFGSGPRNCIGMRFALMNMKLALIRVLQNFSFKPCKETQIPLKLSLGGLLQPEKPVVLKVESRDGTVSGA

Sequence of Cytochrome P450 2D6 (P10635 whole entry): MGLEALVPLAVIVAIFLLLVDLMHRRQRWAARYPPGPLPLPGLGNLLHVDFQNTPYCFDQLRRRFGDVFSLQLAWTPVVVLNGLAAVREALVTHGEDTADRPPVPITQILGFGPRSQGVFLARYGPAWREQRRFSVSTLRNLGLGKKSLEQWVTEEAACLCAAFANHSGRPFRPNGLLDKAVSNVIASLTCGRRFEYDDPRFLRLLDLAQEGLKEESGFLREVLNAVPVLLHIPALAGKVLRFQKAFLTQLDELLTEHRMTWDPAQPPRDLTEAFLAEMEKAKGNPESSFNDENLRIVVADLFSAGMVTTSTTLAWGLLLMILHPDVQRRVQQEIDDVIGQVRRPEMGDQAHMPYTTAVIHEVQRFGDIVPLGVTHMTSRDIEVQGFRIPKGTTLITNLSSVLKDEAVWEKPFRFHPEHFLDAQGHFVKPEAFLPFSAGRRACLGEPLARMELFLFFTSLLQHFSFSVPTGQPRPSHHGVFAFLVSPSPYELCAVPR
Sequence of Cytochrome P450 2C19 (P33261 whole entry): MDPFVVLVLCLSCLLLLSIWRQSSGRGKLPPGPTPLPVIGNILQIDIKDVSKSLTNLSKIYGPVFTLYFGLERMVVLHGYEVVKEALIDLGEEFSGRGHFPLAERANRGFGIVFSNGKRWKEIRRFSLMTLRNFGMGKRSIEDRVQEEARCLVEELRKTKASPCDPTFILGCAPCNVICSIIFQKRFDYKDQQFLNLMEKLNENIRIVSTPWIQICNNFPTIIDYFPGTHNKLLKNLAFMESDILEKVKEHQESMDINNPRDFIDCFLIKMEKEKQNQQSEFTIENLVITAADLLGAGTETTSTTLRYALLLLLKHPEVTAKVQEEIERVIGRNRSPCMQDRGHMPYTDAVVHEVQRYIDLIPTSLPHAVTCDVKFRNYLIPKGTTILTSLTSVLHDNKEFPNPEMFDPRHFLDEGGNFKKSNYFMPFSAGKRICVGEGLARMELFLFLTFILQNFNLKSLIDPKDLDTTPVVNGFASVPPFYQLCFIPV
Sequence of Cytochrome P450 2C9 (P11712 whole entry): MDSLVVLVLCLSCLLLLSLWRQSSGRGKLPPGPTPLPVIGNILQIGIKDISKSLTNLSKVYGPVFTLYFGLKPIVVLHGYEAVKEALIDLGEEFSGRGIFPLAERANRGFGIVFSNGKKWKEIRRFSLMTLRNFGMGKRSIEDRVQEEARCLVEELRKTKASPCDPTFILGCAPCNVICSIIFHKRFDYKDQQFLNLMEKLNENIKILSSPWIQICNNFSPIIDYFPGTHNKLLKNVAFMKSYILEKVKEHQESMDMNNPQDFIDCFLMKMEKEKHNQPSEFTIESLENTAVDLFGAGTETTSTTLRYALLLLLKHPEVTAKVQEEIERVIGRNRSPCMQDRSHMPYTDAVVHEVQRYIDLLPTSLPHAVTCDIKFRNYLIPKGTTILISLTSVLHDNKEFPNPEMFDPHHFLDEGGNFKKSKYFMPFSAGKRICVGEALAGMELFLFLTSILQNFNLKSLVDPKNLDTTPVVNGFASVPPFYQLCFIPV

| SMILES | Emax at 16 h, 1 µM [1] [%] | Emax at 16 h, 5 µM [2] [%] | Emax at 16 h, 10 µM [3] [%] | also measured |
| --- | --- | --- | --- | --- |
| CC(C)(C)NS(=O)(=O)c1ccc(-c2sc(C(=O)NC3CCOCC3)nc2CC2CCCCC2)c2ccccc12 | 181 | – | 206 | – |
| CCC(C)(C)NS(=O)(=O)c1ccc(-c2sc(C(=O)N[C@H]3C[C@H](C(=O)O)C3)nc2CC2CCCCC2)c2ccccc12 | 116 | 158 | – | – |
| CC(C)(C)NS(=O)(=O)c1ccc(-c2sc(C(=O)N3CC4(CCS(=O)(=O)CC4)C3)nc2CC2CCCCC2)c2ccccc12 | 116 | – | 128 | – |
| C[C@H](NS(=O)(=O)c1ccc(-c2sc(C(=O)NCC(C)(C)O)nc2COC(C)(C)C)c(Cl)c1Cl)C(F)(F)F | 61 | 117 | – | solubility thermodynamic at 10000 µM [4]: 12 µM (≈ 7.28 µg/mL); half-life [5]: > 180 min; half-life [6]: > 180 min; INH [8]: 6.5 µM; INH [9]: > 10 µM; INH [10]: 1.7 µM; INH [11]: > 10 µM; INH [12]: > 10 µM |
| CC(C)(O)CNC(=O)c1nc(CC2CCCCC2)c(-c2ccc(S(=O)(=O)NC3(C#N)CC3)c3ccccc23)s1 | 155 | – | 167 | solubility thermodynamic at 10000 µM [4]: 10 µM (≈ 5.67 µg/mL); half-life [5]: 15 min; half-life [6]: 27 min; INH [7]: > 10 µM; INH [8]: 6.3 µM; INH [9]: 7.3 µM; INH [10]: 0.7 µM; INH [11]: > 10 µM; INH [12]: 0.9 µM |
| CC(C)(CCF)NS(=O)(=O)c1ccc(-c2sc(C(=O)N[C@H]3C[C@H](C(=O)O)C3)nc2CC2CCCCC2)c2ccccc12 | 91 | 117 | – | – |
| CCS(=O)(=O)c1ccc(CNC(=O)c2nc(CC3CCCCC3)c(-c3ccc(S(=O)(=O)NC(C)(C)C)c4ccccc34)s2)cc1 | 26 | – | 94 | – |
| C[C@H](NS(=O)(=O)c1ccc(-c2sc(C(=O)NCC(C)(C)O)nc2Cc2ccc(F)cc2)c(Cl)c1Cl)C(F)(F)F | 80 | 134 | – | – |
| CC(C)(C)NS(=O)(=O)c1ccc(-c2sc(C(=O)NC3CS(=O)(=O)C3)nc2CC2CCCCC2)c2ccccc12 | 181 | – | 187 | – |
| CC(C)(O)CNC(=O)c1nc(CC2CCCCC2)c(-c2ccc(S(=O)(=O)NC(C)(C)C)c3ccccc23)s1 | 138 | 116 | – | – |
| CC(C)(O)CNC(=O)c1nc(CC2CCCCC2)c(-c2ccc(S(=O)(=O)NC(C)(C)C)c(Cl)c2C(F)F)s1 | – | – | – | half-life [5]: 14 min; half-life [6]: 18 min; INH [7]: > 10 µM; INH [8]: 5.6 µM; INH [9]: 4.6 µM; INH [10]: 0.4 µM; INH [11]: > 10 µM; INH [12]: 6.9 µM |
| C[C@H](NS(=O)(=O)c1ccc(-c2sc(C(=O)NCC(C)(C)O)nc2CC2CC(F)(F)C2)c2ccccc12)C(F)(F)F | 71 | 80 | – | – |
| C[C@H](NS(=O)(=O)c1ccc(-c2sc(C(=O)N3CC4(C3)CS(=O)(=O)C4)nc2CC2CCC2)c(Cl)c1Cl)C(F)(F)F | 56 | 106 | – | – |
| CC(C)(C)NS(=O)(=O)c1ccc(-c2sc(C(=O)N[C@H]3C[C@H](C(=O)O)C3)nc2CC2CCCCC2)c(Cl)c1Cl | 16 | – | 23 | – |
| CC(C)(O)CNC(=O)c1nc(CC2CCCCC2)c(-c2cnc(S(=O)(=O)NC(C)(C)C)c3ccccc23)s1 | – | – | – | solubility thermodynamic at 10000 µM [4]: < 4 µM; half-life [5]: 5.2 min; half-life [6]: 23 min; INH [7]: > 10 µM; INH [8]: 7.6 µM; INH [9]: > 10 µM; INH [10]: 1.1 µM; INH [11]: > 10 µM; INH [12]: > 10 µM |
| CC(C)(C)NS(=O)(=O)c1ccc(-c2sc(C(=O)NC34CC(C(=O)O)(C3)C4)nc2CC2CCCCC2)c2ccccc12 | 69 | – | 116 | – |
| CC(C)(C)NS(=O)(=O)c1ccc(-c2sc(C(=O)NC3CCS(=O)(=O)CC3)nc2C(C)(C)C)c2ccccc12 | 66 | 112 | – | – |
| CC(C)(CCO)NS(=O)(=O)c1ccc(-c2sc(C(=O)N[C@H]3C[C@H](C(=O)O)C3)nc2CC2CCCCC2)c2ccccc12 | 15 | 53 | – | – |
| CC(C)(C)NS(=O)(=O)c1ccc(-c2sc(C(=O)NCC(C)(C)C(N)=O)nc2CC2CCCCC2)c2ccccc12 | 110 | 142 | – | – |
| CC(C)(C)NS(=O)(=O)c1ccc(-c2sc(C(=O)NCC3CS(=O)(=O)C3)nc2CC2CCCCC2)c2ccccc12 | 140 | 147 | – | – |

Second part, led by results:

| Emax at 16 h, 1 µM [1] [%] | Emax at 16 h, 5 µM [2] [%] | Emax at 16 h, 10 µM [3] [%] | SMILES | also measured |
| --- | --- | --- | --- | --- |
| 157 | 159 | – | C[C@H](NS(=O)(=O)c1cc(-c2sc(C(=O)N[C@H]3C[C@H](C(=O)O)C3)nc2CC2CCCCC2)cc(C(C)(C)C)c1)C(F)(F)F | – |
| 10 | – | 20 | CC(C)(C)NS(=O)(=O)c1ccc(-c2sc(C(=O)N[C@H]3C[C@H](C(=O)O)C3)nc2CC2CCCCC2)c2c1CCCC2 | solubility thermodynamic at 10000 µM [4]: < 1 µM; half-life [5]: 22 min; half-life [6]: 16 min; INH [7]: > 10 µM; INH [8]: > 10 µM; INH [9]: 4.2 µM; INH [10]: > 10 µM; INH [11]: > 10 µM; INH [12]: > 10 µM |
| 3.1 | 7.5 | – | C[C@H](NC(=O)c1cc(-c2sc(C(=O)N[C@H]3C[C@H](C(=O)O)C3)nc2CC2CCCCC2)cc(C2(C#N)CC2)c1)C(F)(F)F | – |
| 32 | 71 | – | CC[C@H](NC(=O)c1cc(-c2sc(C(=O)N[C@H]3C[C@H](C(=O)O)C3)nc2CC2CCCCC2)cc(C2(C)CC2)c1)C(F)(F)F | – |
| 11 | – | 53 | CC(C)(C)NC(=O)c1cc(-c2sc(C(=O)N[C@H]3C[C@H](C(=O)O)C3)nc2CC2CCCCC2)cc(C2(C)CC2)c1 | – |
| 26 | – | 94 | C[C@H](NC(=O)c1cc(-c2sc(C(=O)N[C@H]3C[C@H](C(=O)O)C3)nc2CC2CCCCC2)cc(C2(C)CC2)c1)C(F)(F)F | solubility thermodynamic at 10000 µM [4]: 17 µM (≈ 10.1 µg/mL); half-life [5]: 150 min; half-life [6]: > 180 min; INH [7]: > 10 µM; INH [8]: > 10 µM; INH [9]: > 10 µM; INH [10]: > 10 µM; INH [11]: > 10 µM; INH [12]: > 10 µM |
| 29 | 59 | – | C[C@H](NC(=O)c1cc(-c2sc(C(=O)N[C@H]3C[C@H](C(=O)O)C3)nc2CC2CCCCC2)cc(C(C)(C)C)c1)C(F)(F)F | – |
| 40 | 118 | – | C[C@H](NS(=O)(=O)c1ccc(-c2sc(C(=O)N[C@H]3C[C@H](C(=O)O)C3)nc2CC2CCC2)c2ccccc12)C(F)(F)F | – |
| 41 | 89 | – | CC(C)(C)c1cc(-c2sc(C(=O)N[C@H]3C[C@H](C(=O)O)C3)nc2CC2CCCCC2)cc(C(O)(C(F)(F)F)C(F)(F)F)c1 | – |
